# Patent US20240239781A1, “1H-PYRAZOLE DERIVATIVES AS SIGMA LIGANDS” (ACONDICIONAMIENTO TARRASENSE, priority 2021, published 2024)
# Key:
# human σ1 receptor = target: T1, human σ1 receptor (Homo sapiens, UniProt Q99720); assay: Human σ1 receptor radioligand assay ([3H](+)-pentazocine, transfected HEK-293 membranes); conditions: class scale, read-out: Binding σ-1 Ki
# T1 construct: expressed in transfected cells; host or cells: HEK-293
# Method in brief: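 Compounds were tested at a single 1 or 10 μM concentration (% inhibition) or at five concentrations to give Ki. They competed with 5 nM [3H](+)-pentazocine for transfected HEK-293 membranes (7 μg) in 50 mM Tris-HCl pH 8 at 37° C for 120 minutes. Nonspecific binding was set with 10 μM haloperidol, and a filtration scintillation read-out was used.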
# human σ2/TMEM97 receptor = target: T2, human σ2/TMEM97 receptor (Homo sapiens, UniProt Q5BJF2); assay: Binding assay to human σ2/TMEM97 receptor ([3H]-DTG, transfected HEK-293 membranes); conditions: class scale, read-out: Binding σ-2 Ki
# T2 construct: expressed in transfected cells; host or cells: HEK-293
# Method in brief: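 Competition against 10 nM [3H]-DTG (Tris-HCl 50 mM, pH 8.0, 25 °C, 120 min) using 15 μg transfected HEK-293 membrane protein, with 10 μM haloperidol defining NSB. Bound radioactivity counted after filtration; results as single-point % inhibition (1 or 10 μM) or five-point Ki.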
# T2 sequence (Q5BJF2 whole entry): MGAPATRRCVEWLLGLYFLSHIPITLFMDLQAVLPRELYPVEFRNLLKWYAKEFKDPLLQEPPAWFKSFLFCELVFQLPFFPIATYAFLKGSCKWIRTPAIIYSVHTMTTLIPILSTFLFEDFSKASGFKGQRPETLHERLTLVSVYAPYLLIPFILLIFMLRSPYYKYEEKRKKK
# T1 sequence (Q99720 whole entry): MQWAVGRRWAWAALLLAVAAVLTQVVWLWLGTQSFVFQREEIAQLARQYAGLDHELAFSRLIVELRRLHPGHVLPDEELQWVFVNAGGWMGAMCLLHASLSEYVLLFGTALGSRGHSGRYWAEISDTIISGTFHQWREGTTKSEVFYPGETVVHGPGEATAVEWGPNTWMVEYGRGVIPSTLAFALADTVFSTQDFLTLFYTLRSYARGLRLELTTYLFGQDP
Compound,Ki (human σ1 receptor),Ki (human σ2/TMEM97 receptor)
"Cc1cc(-c2nn(C)c(Cl)c2CN2C[C@@H](CNCCC(C)(C)C)[C@H](C)C2)no1 [Example 77, N-(((3R,4S)-1-((5-Chloro-1-methyl-3-(5-methylisoxazol-3-yl)-1H-pyrazol-4-yl)methyl)-4-methylpyrrolidin-3-yl)methyl)-3,3-dimethylbutan-1-amine]",0.1 to 0.5 µM,< 0.1 µM
"CCn1nc(-c2ccon2)c(C(=O)N2CCC3(CCN(CCC(C)(C)C)CC3)CC2)c1Cl [Example 171, (5-Chloro-1-ethyl-3-(isoxazol-3-yl)-1H-pyrazol-4-yl)(9-(3,3-dimethylbutyl)-3,9-diazaspiro[5.5]undecan-3-yl)methanone]",0.1 to 0.5 µM,< 0.1 µM
"Cc1cc(-c2nn(C)c(Cl)c2C(=O)N2CCCCC(N(C)CCc3ccccc3)C2)no1 (stereo not shown) [Example 110, (5-Chloro-1-methyl-3-(5-methylisoxazol-3-yl)-1H-pyrazol-4-yl)(3-(methyl(phenethyl)amino)azepan-1-yl)methanone]",0.5 to 1 µM,0.1 to 0.5 µM
"Cc1cc(-c2nn(C)c(Cl)c2CN2CCC(CNCC(C)C)C2)no1 (stereo not shown) [Example 49, N-((1-((5-Chloro-1-methyl-3-(5-methylisoxazol-3-yl)-1H-pyrazol-4-yl)methyl)pyrrolidin-3-yl)methyl)-2-methylpropan-1-amine]",0.1 to 0.5 µM,> 1 µM
"Cc1cc(-c2nn(C)c(Cl)c2CN2C[C@H](CNCCC(C)(C)C)[C@@H](C)C2)no1 [Example 78, N-(((3S,4R)-1-((5-Chloro-1-methyl-3-(5-methylisoxazol-3-yl)-1H-pyrazol-4-yl)methyl)-4-methylpyrrolidin-3-yl)methyl)-3,3-dimethylbutan-1-amine]",0.1 to 0.5 µM,< 0.1 µM
Cc1cc(-c2nn(C)c(Cl)c2CC(=O)N2CCC3(CCN(CCC(C)C)CC3)CC2)no1 [Example 120],0.1 to 0.5 µM,< 0.1 µM
"Cc1cc(-c2nn(C)c(Cl)c2C(=O)N2CCCCC(NCCc3ccccc3)C2)no1 (stereo not shown) [Example 85, (5-Chloro-1-methyl-3-(5-methylisoxazol-3-yl)-1H-pyrazol-4-yl)(3-(phenethylamino)azepan-1-yl)methanone]",> 1 µM,0.1 to 0.5 µM
"Cc1cc(-c2nn(C)c(Cl)c2CN2CCC[C@H](NCCc3ccccc3)C2)no1 [Example 7, (S)-1-((5-Chloro-1-methyl-3-(5-methylisoxazol-3-yl)-1H-pyrazol-4-yl)methyl)-N-phenethylpiperidin-3-amine]",0.1 to 0.5 µM,> 1 µM
"CCn1nc(-c2cc(C)on2)c(CC(=O)N2CCC3(CCN(CCC(C)(C)C)CC3)CC2)c1Cl [Example 210, 2-(5-Chloro-1-ethyl-3-(5-methylisoxazol-3-yl)-1H-pyrazol-4-yl)-1-(9-(3,3-dimethylbutyl)-3,9-diazaspiro[5.5]undecan-3-yl)ethan-1-one]",0.5 to 1 µM,< 0.1 µM
"CCn1nc(-c2ccon2)c(C(=O)NC2CC3(CCN(CCC(C)(C)C)CC3)C2)c1Cl [Example 139, 5-Chloro-N-(7-(3,3-dimethylbutyl)-7-azaspiro[3.5]nonan-2-yl)-1-ethyl-3-(isoxazol-3-yl)-1H-pyrazole-4-carboxamide]",0.1 to 0.5 µM,< 0.1 µM

# The next lines start with the values.
Ki (human σ1 receptor),Ki (human σ2/TMEM97 receptor),Compound
0.1 to 0.5 µM,0.1 to 0.5 µM,"Cc1cc(-c2nn(C)c(Cl)c2C(=O)NC2CC3(CCN(Cc4ccccc4)CC3)C2)no1 [Example 153, N-(7-Benzyl-7-azaspiro[3.5]nonan-2-yl)-5-chloro-1-methyl-3-(5-methylisoxazol-3-yl)-1H-pyrazole-4-carboxamide]"
0.1 to 0.5 µM,0.1 to 0.5 µM,Cc1cc(-c2nn(C)c(Cl)c2CN2CC[C@]3(C2)C[C@@H](NCCC(C)(C)C)C3)no1 [Example 76]
0.1 to 0.5 µM,< 0.1 µM,"Cc1cc(-c2nn(C)c(Cl)c2C(=O)N2CCC3(CCN(Cc4ccc(F)cc4)CC3)CC2)no1 [Example 129, (5-Chloro-1-methyl-3-(5-methylisoxazol-3-yl)-1H-pyrazol-4-yl)(9-(4-fluorobenzyl)-3,9-diazaspiro[5.5]undecan-3-yl)methanone]"
< 0.1 µM,< 0.1 µM,"CCn1nc(-c2cc(C)on2)c(C(=O)NC2CCCN(CCC(C)(C)C)CC2)c1Cl (stereo not shown) [Example 160, 5-Chloro-N-(1-(3,3-dimethylbutyl)azepan-4-yl)-1-ethyl-3-(5-methylisoxazol-3-yl)-1H-pyrazole-4-carboxamide]"
0.1 to 0.5 µM,< 0.1 µM,"CCCn1nc(-c2cc(C)on2)c(C(=O)N2CCC3(CCN(CCC(C)(C)C)CC3)CC2)c1Cl [Example 182, (5-Chloro-3-(5-methylisoxazol-3-yl)-1-propyl-1H-pyrazol-4-yl)(9-(3,3-dimethylbutyl)-3,9-diazaspiro[5.5]undecan-3-yl)methanone]"
0.5 to 1 µM,0.1 to 0.5 µM,"CC(C)CCNC1CCCCN(Cc2c(-c3cccc(O)n3)nn(C)c2Cl)C1 (stereo not shown) [Example 39, 6-(5-Chloro-4-((3-(isopentylamino)azepan-1-yl)methyl)-1-methyl-1H-pyrazol-3-yl)pyridin-2-ol]"
> 1 µM,0.5 to 1 µM,"Cc1cc(-c2nn(C)c(Cl)c2C(=O)N2CCC[C@H](CNCCC(C)C)C2)no1 [Example 125, (R)-(5-Chloro-1-methyl-3-(5-methylisoxazol-3-yl)-1H-pyrazol-4-yl)(3-((isopentylamino)methyl)piperidin-1-yl)methanone]"
> 1 µM,< 0.1 µM,"CCn1ccc(-c2nn(C)c(Cl)c2C(=O)N2CCC3(CCN(CCC(C)(C)C)CC3)CC2)n1 [Example 179, (5-Chloro-1′-ethyl-1-methyl-1H,1′H-[3,3′-bipyrazol]-4-yl)(9-(3,3-dimethylbutyl)-3,9-diazaspiro[5.5]undecan-3-yl)methanone]"
< 0.1 µM,< 0.1 µM,"CCn1nc(-c2ccon2)c(CC(=O)N2CCC3(CCN(CCC(C)(C)C)CC3)CC2)c1Cl [Example 209, 2-(5-Chloro-1-ethyl-3-(isoxazol-3-yl)-1H-pyrazol-4-yl)-1-(9-(3,3-dimethylbutyl)-3,9-diazaspiro[5.5]undecan-3-yl)ethan-1-one]"
< 0.1 µM,< 0.1 µM,"Cc1cccc(-c2nn(C)c(Cl)c2C(=O)NC2CCC3(CC2)CCN(CCC(C)(C)C)CC3)n1 [Example 148, 5-Chloro-N-(3-(3,3-dimethylbutyl)-3-azaspiro[5.5]undecan-9-yl)-1-methyl-3-(6-methylpyridin-2-yl)-1H-pyrazole-4-carboxamide]"
0.5 to 1 µM,> 1 µM,"COc1ccc(-c2nn(C)c(Cl)c2CN2CCCCC(NCCC(C)(C)C)C2)nc1 (stereo not shown) [Example 35, 1-((5-Chloro-3-(5-methoxypyridin-2-yl)-1-methyl-1H-pyrazol-4-yl)methyl)-N-(3,3-dimethylbutyl)azepan-3-amine]"
0.1 to 0.5 µM,< 0.1 µM,"Cc1cc(-c2nn(C)c(Cl)c2CC(=O)NC2CCN(CCC(C)(C)C)CC2)no1 [Example 220, 2-(5-Chloro-1-methyl-3-(5-methylisoxazol-3-yl)-1H-pyrazol-4-yl)-N-(1-(3,3-dimethylbutyl)piperidin-4-yl)acetamide]"
0.5 to 1 µM,0.1 to 0.5 µM,"Cc1cc(-c2nn(C)c(Cl)c2CN2CCCC(CNCCc3ccccc3)C2)no1 (stereo not shown) [Example 57, N-((1-((5-Chloro-1-methyl-3-(5-methylisoxazol-3-yl)-1H-pyrazol-4-yl)methyl)piperidin-3-yl)methyl)-2-phenylethanamine]"
